Measured values: article PMC4540187 (Cell Death & Disease, 2014)

Key:
Experiment in all cases: […]-ATP peptide kinase assay with TLC, purified kinase
Format in all cases: biochemical
Btk = Btk (Homo sapiens, UniProt Q06187)
Itk = target: T1, Itk (Homo sapiens, UniProt Q08881)
T1 sequence (Q08881 1-620): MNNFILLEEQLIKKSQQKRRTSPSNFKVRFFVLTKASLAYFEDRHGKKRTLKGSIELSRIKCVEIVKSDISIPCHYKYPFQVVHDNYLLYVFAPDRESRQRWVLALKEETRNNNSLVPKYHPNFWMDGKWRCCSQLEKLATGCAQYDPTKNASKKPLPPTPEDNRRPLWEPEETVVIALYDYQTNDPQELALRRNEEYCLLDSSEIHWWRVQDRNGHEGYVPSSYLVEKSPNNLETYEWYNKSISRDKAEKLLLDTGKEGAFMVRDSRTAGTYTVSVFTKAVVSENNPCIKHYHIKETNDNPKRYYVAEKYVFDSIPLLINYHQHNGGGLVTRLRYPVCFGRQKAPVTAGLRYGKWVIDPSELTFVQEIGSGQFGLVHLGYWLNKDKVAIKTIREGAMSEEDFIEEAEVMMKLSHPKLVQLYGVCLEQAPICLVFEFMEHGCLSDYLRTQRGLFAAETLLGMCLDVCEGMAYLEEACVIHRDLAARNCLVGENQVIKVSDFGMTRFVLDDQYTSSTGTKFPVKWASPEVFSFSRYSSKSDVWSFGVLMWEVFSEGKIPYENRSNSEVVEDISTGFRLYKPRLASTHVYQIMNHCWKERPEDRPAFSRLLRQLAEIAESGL

Src = Src (Homo sapiens, UniProt P12931)
Src, sequence (P12931 2-536): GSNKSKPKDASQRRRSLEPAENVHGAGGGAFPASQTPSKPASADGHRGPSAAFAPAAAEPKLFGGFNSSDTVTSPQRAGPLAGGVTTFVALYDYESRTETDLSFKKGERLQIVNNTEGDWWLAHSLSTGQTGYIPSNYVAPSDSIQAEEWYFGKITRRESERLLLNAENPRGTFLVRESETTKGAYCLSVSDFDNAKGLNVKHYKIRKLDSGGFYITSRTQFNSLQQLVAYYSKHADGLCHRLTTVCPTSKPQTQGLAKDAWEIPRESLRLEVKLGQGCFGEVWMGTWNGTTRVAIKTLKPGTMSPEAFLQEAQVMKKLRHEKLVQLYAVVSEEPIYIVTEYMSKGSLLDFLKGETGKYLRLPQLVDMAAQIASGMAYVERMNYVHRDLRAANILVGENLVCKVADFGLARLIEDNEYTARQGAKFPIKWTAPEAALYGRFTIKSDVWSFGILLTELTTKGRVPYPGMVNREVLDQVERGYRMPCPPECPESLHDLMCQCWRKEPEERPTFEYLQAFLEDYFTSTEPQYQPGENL

Btk, sequence (Q06187 2-659): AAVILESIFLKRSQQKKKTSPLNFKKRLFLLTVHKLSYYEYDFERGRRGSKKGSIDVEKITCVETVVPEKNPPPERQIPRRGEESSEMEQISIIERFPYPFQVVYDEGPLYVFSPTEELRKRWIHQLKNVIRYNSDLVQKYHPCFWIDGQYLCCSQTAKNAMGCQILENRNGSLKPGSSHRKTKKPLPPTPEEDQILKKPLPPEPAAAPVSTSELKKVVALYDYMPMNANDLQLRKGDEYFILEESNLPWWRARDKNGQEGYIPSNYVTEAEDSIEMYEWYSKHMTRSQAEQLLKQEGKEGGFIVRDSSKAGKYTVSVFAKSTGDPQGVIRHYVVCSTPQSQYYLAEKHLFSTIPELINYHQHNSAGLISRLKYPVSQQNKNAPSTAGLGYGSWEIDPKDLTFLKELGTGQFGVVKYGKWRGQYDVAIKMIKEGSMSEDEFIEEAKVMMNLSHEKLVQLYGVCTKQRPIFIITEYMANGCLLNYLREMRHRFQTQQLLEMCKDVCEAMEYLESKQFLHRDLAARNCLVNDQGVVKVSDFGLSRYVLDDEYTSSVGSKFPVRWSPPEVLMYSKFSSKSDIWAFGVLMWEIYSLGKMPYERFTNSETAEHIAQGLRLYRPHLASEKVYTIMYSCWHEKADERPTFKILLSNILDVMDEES

IC50 (Btk): ~0.05 µM
IC50 (Src): ~5 µM
SMILES: CC(C)Cc1nc2cc3c(cc2[nH]c1=O)nc(NC(=O)c1ccc(-c2ccncc2)cc1)n3CCCN1CCCCC1 [CTN06, N-(7-isobutyl-6-oxo-1-(3-(piperidin-1-yl)propyl)-5,6-dihydro-1H-imidazo[4,5-g]quinoxalin-2-yl)-4-(pyridin-4-yl)benzamide]
33P-ATP peptide kinase assay with TLC, purified kinase (Itk): CTN06 appears to have the strongest activity toward Btk and Etk, followed by Itk, another member in the same family
